PubChem BioAssay AID623924 (Vanderbilt Specialized Chemistry Center, 2012)
Calls of active or inactive are those of the source.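 Rule for the calls: active = response changes with concentration, giving a dose-dependent curve as judged by the depositor; inactive = the rest, with no dose-dependent response.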

These molecules were tested against Muscarinic acetylcholine receptor M1 (Homo sapiens) (UniProt P11229) (assay: human M1 receptor positive allosteric modulation, SAR follow-up, selectivity assay for M4 PAM optimization, CHO-K1 cells, calcium fluorescence (AID 623924)). Conditions: CHO-K1 hM1, calcium fluorescence, ACh EC20 potentiation.
Sequence of Muscarinic acetylcholine receptor M1 (Homo sapiens) (P11229 whole entry, looked up): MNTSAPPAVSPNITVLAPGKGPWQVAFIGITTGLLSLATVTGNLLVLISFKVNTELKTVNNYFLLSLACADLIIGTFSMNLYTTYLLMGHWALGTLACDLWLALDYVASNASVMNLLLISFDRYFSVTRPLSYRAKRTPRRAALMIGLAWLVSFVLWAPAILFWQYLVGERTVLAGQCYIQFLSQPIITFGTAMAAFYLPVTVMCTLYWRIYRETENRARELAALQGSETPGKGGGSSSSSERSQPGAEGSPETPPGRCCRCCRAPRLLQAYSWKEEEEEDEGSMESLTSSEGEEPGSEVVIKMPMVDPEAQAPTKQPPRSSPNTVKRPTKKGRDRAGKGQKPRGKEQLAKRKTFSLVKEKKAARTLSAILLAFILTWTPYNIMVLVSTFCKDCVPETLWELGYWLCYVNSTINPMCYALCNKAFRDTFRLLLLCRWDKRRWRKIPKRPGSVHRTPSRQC

outcome | EC50 | SMILES
inactive |  | Cc1nc2sc(C(=O)NCc3ccccc3)c(N)c2c(C)c1Cl
inactive |  | Cc1nc2sc(C(=O)NCc3ccc4c(c3)OCO4)c(N)c2c(C)c1Cl
inactive |  | Cc1nc2sc(C(=O)NCc3cccnc3)c(N)c2c(C)c1Cl
inactive |  | Cc1nc2sc(C(=O)NCc3ccncc3)c(N)c2c(C)c1Cl
 | 969 nM | Cc1nc2sc(C(=O)NC3CC3)c(N)c2c(C)c1Cl

Same assay, conditions: CHO-K1 hM1, calcium fluorescence, ACh EC20 potentiation; at 30 µM (top of the series)

SMILES | % ACh max response
Cc1nc2sc(C(=O)NCc3ccncn3)c(N)c2c(C)c1Cl | inactive
Cc1nc2sc(C(=O)NCc3cccc(F)c3F)c(N)c2c(C)c1Cl | inactive

Now from value to molecule:

% ACh max response | SMILES
inactive | Cc1nc2sc(C(=O)NCCc3ccncc3)c(N)c2c(C)c1Cl
inactive | Cc1nc2sc(C(=O)NCc3nccs3)c(N)c2c(C)c1Cl
inactive | COc1ccc(C)c2sc(NC(=O)c3ccncc3)nc12
